From patent US10301295B2, “Herbicidal compounds” (Syngenta Participations AG, priority 2014, dated 2019)
Where two headings read alike, the source gives them in different places.

What was measured:
Assay type in all cases: in vivo
wheat = experiment: Post-emergence herbicidal activity against cereal crops (wheat) +/- safener, crop selectivity; settings: 100%=total damage to plant, 0%=no damage; for Post-emergence herbicidal activity against wheat (percentage phytotoxicity), +CQC: 250 g/ha, plus safener cloquintocet-mexyl (CQC) applied at 50 g/ha; for percent phytotoxicity (crop damage) to wheat at 250 g/ha: Triticum aestivum, 360 h, without safener, read-out: Post-emergence herbicidal activity against wheat (percentage phytotoxicity), Wheat - CQC
Procedure: Seeds of a variety of monocotyledonous and dicotyledonous test plants are sown in standard soil in pots. The plants are cultivated for one day (for pre-emergence) or for about 12 days (for post-emergence) under controlled conditions in a glasshouse (warm climate species at 24/18° C., cool climate species at 20/16° C., both at day/night; 16 hours light; 65% humidity). The test plants are then grown on, in a glasshouse (greenhouse) under controlled conditions (warm climate species at 24/18° C., cool climate species at 20/16° C., both at day/night; 16 hours light; 65% humidity) and are watered twice daily. 15 days after application of the test herbicide (15DAA) (for post-emergence), and 20 days after application of the test herbicide (20DAA) (for pre-emergence), the test plants are evaluated visually, and an assessed percentage phytotoxicity score is given for each herbicidal application on each plant species (with 100%=total damage to plant; 0%=no damage to plant).

Lolium perenne (LOLPE) = experiment: Glasshouse assay for herbicidal activity, pre-/post-emergence (percentage phytotoxicity); settings: Lolium perenne, Rate 250 g/ha, 100%=total damage, 0%=no damage
In short: (§1)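 Pre- and post-emergence treatments were applied to potted plants at 1 and ~12 days after sowing respectively. Percentage phytotoxicity was judged visually 20 or 15 days later.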

[1] = tested on: Echinochloa crus-galli (ECHCG); experiment: as above; settings: Echinochloa crus-galli, Rate 250 g/ha, 100%=total damage, 0%=no damage
In short: as §1

[2] = tested on: Alopecurus myosuroides (ALOMY); experiment: as above; settings: Alopecurus myosuroides, Rate 250 g/ha, 100%=total damage, 0%=no damage
In short: as §1

Avena fatua (AVEFA) = experiment: as above; settings: Avena fatua, Rate 250 g/ha, 100%=total damage, 0%=no damage
In short: as §1

[3] = post-emergence, 360 h, post-emergence, visual assessment 15 DAA, read-out: Post-emergence herbicidal activity (percentage phytotoxicity), LOLPE POST
[4] = pre-emergence, 480 h, pre-emergence, visual assessment 20 DAA, read-out: Pre-emergence herbicidal activity (percentage phytotoxicity), LOLPE PRE
[5] = post-emergence, 360 h, post-emergence, visual assessment 15 DAA, read-out: Post-emergence herbicidal activity (percentage phytotoxicity), ECHCG POST
[6] = pre-emergence, 480 h, pre-emergence, visual assessment 20 DAA, read-out: Pre-emergence herbicidal activity (percentage phytotoxicity), ECHCG PRE
[7] = 360 h, post-emergence, visual assessment 15 DAA, read-out: Post-emergence herbicidal activity (percentage phytotoxicity), ALOMY POST
[8] = 480 h, pre-emergence, visual assessment 20 DAA, read-out: Pre-emergence herbicidal activity (percentage phytotoxicity), ALOMY PRE
[9] = post-emergence, 360 h, post-emergence, visual assessment 15 DAA, read-out: Post-emergence herbicidal activity (percentage phytotoxicity), AVEFA POST
[10] = pre-emergence, 480 h, pre-emergence, visual assessment 20 DAA, read-out: Pre-emergence herbicidal activity (percentage phytotoxicity), AVEFA PRE

| SMILES | Post-emergence herbicidal activity against wheat (percentage phytotoxicity), +CQC (wheat) [%] | percent phytotoxicity (crop damage) to wheat at 250 g/ha (wheat) [%] | pest or weed control at 250 g/ha (Lolium perenne (LOLPE); [3]) [%] | pest or weed control at 250 g/ha (Lolium perenne (LOLPE); [4]) [%] | pest or weed control at 250 g/ha [1, 5] [%] | pest or weed control at 250 g/ha [1, 6] [%] | pest or weed control at 250 g/ha [2, 7] [%] | pest or weed control at 250 g/ha [2, 8] [%] | pest or weed control at 250 g/ha (Avena fatua (AVEFA); [9]) [%] | pest or weed control at 250 g/ha (Avena fatua (AVEFA); [10]) [%] |
| --- | --- | --- | --- | --- | --- | --- | --- | --- | --- | --- |
| Cc1cc(C)c(C2C(=O)CC(CCNS(=O)(=O)c3ccc(Cl)c(Cl)c3)C2=O)c(C)c1 (stereo not shown) [Compound A78] | 0 | 0 | 60 | 70 | 30 | 20 | 40 | 60 | 80 | 0 |
| Cc1cc(C)c(C2C(=O)CC(CCNC(=O)NC(=O)c3cc(F)c(Cl)cc3Cl)C2=O)c(C)c1 (stereo not shown) [Compound A65] | 40 | 80 | 100 | 80 | 80 | 70 | 100 | 80 | 90 | 70 |
| Cc1cc(-n2cc(Cl)cn2)cc(C)c1C1C(=O)CC(CCNC(=O)Nc2ncccn2)C1=O.Cl (stereo not shown) [Compound A32] | 10 | 60 | 60 | 60 | 100 | 80 | 80 | 70 | 100 | 50 |
| Cc1ccc(C(=O)NC(=O)NCCC2CC(=O)C(c3c(C)cc(C)cc3C)C2=O)cc1 (stereo not shown) [Compound A55] | 0 | 30 | 90 | 70 | 80 | 80 | 70 | 60 | 0 | 10 |
| Cc1cc(C)c(C2C(=O)CC(CCNS(=O)(=O)c3ccccc3Cl)C2=O)c(C)c1 (stereo not shown) [Compound A80] | 0 | 0 | 60 | 60 | 0 | 40 | 10 | 10 | 0 | 0 |
| Cc1cc(C)c(C2C(=O)CC(CCNC(=O)NC(=O)c3c(Cl)cccc3Cl)C2=O)c(C)c1 (stereo not shown) [Compound A52] | 30 | 80 | 90 | 80 | 90 | 100 | 90 | 80 | 80 | 70 |
| Cc1cc(C)c(C2C(=O)CC(CCNC(=S)NC(=O)c3ccccc3)C2=O)c(C)c1 (stereo not shown) [Compound A91] | 70 | 70 | 70 | 70 | 0 | 70 | 80 | 60 | 10 | 60 |
